Assay in all cases: Test Example 1: foliar application pot test, visual growth control rating
Common to all, as to format: in vivo
Common to all, as to set-up: key: 1: the same as in an untreated plot; 10: perfect growth control
What all share (details): wettable powder, observed 20 to 31 days after application

The test system of experiment [1] is corn (Zea mays). The text has this:
(§1) 1/1,500 are [are (a) = 100 m²] pots were filled with upland farming soil, which in the pots was then sown with a variety of plants. The plants grown will be enumerated below.
(§2) When each plant reached a given growth stage (a 1.2- to 3.0-leaf stage for rice, primary leaf to a 0.7-leaf stage for soybean, 2.1- to 3.6-leaf stage for corn, cotyledon to 0.7-leaf stage for cotton, 2.0- to 3.0-leaf stage for wheat, 0.3- to 3.4-leaf stage for cocklebur, 0.3- to 1.6-leaf stage for morning glory, 0.1- to 1.3-leaf stage for prickly sida, 0.1- to 1.3-leaf stage for slender amaranth, 1.5- to 3.2-leaf stage for barnyard glass, and 1.2- to 3.0-leaf stage for large crabgrass), a predetermined amount of the herbicide of the present invention in the form of a wettable powder, weighed out, diluted with 5 ℓ/a of water and admixed with 0.2 or 0.1 vol%, based on the resulting composition, of an agricultural spreader, was foliarly applied to the plant with a small spray gun. The progress of growth of the plant was visually observed 20 to 31 days after the foliar application to evaluate the degree of growth control according to 10 ratings (1: the same as in an untreated plot - 10: perfect growth control).

The test system of experiment [2] is barnyard grass (Echinochloa crus-galli).
From the text: as §1, §2

The subject of experiment [3] is cocklebur (Xanthium strumarium).
From the text: as §1, §2

The subject of experiment [4] is morning glory (Ipomoea purpurea).
From the text: as §1, §2

The subject of experiment [5] is slender amaranth (Amaranthus viridis).
From the text: as §1, §2

Experiment [6] has as its system rice (Oryza sativa).
From the text: as §1, §2

Experiment [7] relates to large crabgrass (Digitaria adscendens).
From the text: as §1, §2

In the case of `CCN(c1cccc(S(=O)(=O)NC(=O)Nc2nc(C)nc(OC)n2)n1)S(=O)(=O)C(C)Br` (racemic) [compound 78], the “degree of growth control, ZE” value in experiment [1] (0.31 g/a active ingredient) and in experiment [1] (1.25 g/a active ingredient) was 10 in each case. Also, the “degree of growth control, EC” value in experiment [2] (0.31 g/a active ingredient) and in experiment [2] (1.25 g/a active ingredient) was 10 each time. For the same compound, the “degree of growth control, XA” value in experiment [3] (0.31 g/a active ingredient) and in experiment [3] (1.25 g/a active ingredient) was 10 in each case. In addition, the “degree of growth control, IP” value in experiment [4] (0.31 g/a active ingredient) and in experiment [4] (1.25 g/a active ingredient) was 10 throughout.
As to `CCCCS(=O)(=O)N(c1cccc(S(=O)(=O)NC(=O)Nc2nc(C)nc(OC)n2)n1)C(C)CC` (racemic) [compound 84], the “degree of growth control, EC” value in experiment [2] (0.31 g/a active ingredient) and in experiment [2] (1.25 g/a active ingredient) was 5 in each case. Further, the “degree of growth control, IP” value in experiment [4] (0.31 g/a active ingredient) and in experiment [4] (1.25 g/a active ingredient) was 6 throughout.
In the case of `COc1nc(C)nc(NC(=O)NS(=O)(=O)c2cccc(N(C)S(=O)(=O)C(C)Cl)n2)n1` (racemic) [compound 85], the “degree of growth control, ZE” value in experiment [1] (0.31 g/a active ingredient) and in experiment [1] (1.25 g/a active ingredient) was 10 in each case. The “degree of growth control, EC” value in experiment [2] (0.31 g/a active ingredient) and in experiment [2] (1.25 g/a active ingredient) was 10 each time.
In the case of `CCCN(c1cccc(S(=O)(=O)NC(=O)Nc2nc(C)nc(OC)n2)n1)S(=O)(=O)C(C)Cl` (racemic) [compound 86], the “degree of growth control, ZE” value in experiment [1] (0.31 g/a active ingredient) and in experiment [1] (1.25 g/a active ingredient) was 10 each time. In addition, the “degree of growth control, EC” value in experiment [2] (0.31 g/a active ingredient) and in experiment [2] (1.25 g/a active ingredient) was 10 each time. Moreover, the “degree of growth control, IP” value in experiment [4] (0.31 g/a active ingredient) and in experiment [4] (1.25 g/a active ingredient) was 10 throughout.
As to `COc1nc(C)nc(NC(=O)NS(=O)(=O)c2cccc(N(C(C)C)S(=O)(=O)C(C)Cl)n2)n1` (racemic) [compound 93], the “degree of growth control, AM” value in experiment [5] (0.31 g/a active ingredient) and in experiment [5] (1.25 g/a active ingredient) was 9 in each case. In addition, the “degree of growth control, OR” value in experiment [6] (0.31 g/a active ingredient) and in experiment [6] (1.25 g/a active ingredient) was 9 each time. For the same compound, the “degree of growth control, XA” value in experiment [3] (0.31 g/a active ingredient) and in experiment [3] (1.25 g/a active ingredient) was 10 each time. In addition, the “degree of growth control, IP” value in experiment [4] (0.31 g/a active ingredient) and in experiment [4] (1.25 g/a active ingredient) was 9 throughout.
Take `CCN(c1cccc(S(=O)(=O)NC(=O)Nc2nc(OC)nc(OC)n2)n1)S(=O)(=O)C(C)C` [Compound No. 2, 6-[(N-ethyl-N-isopropylsulfonyl)amino]-N-[[(4,6-dimethoxytriazin-2-yl)amino]carbonyl]-2-pyridinesulfonamide]: the “degree of growth control, AM” value in experiment [5] (0.31 g/a active ingredient) and in experiment [5] (1.25 g/a active ingredient) was 10 throughout. Moreover, the “degree of growth control, XA” value in experiment [3] (0.31 g/a active ingredient) and in experiment [3] (1.25 g/a active ingredient) was 10 each time.
For the compound `CCCN(c1cccc(S(=O)(=O)NC(=O)Nc2nc(OC)nc(OC)n2)n1)S(=O)(=O)C(C)C` [Compound No. 5], the “degree of growth control, EC” value in experiment [2] (0.31 g/a active ingredient) and in experiment [2] (1.25 g/a active ingredient) was 10 throughout. For the same compound, the “degree of growth control, XA” value in experiment [3] (0.31 g/a active ingredient) and in experiment [3] (1.25 g/a active ingredient) was 10 in each case.
With `COc1nc(C)nc(NC(=O)NS(=O)(=O)c2cccc(N(OC)S(=O)(=O)C(C)C)n2)n1` [compound 41], the “degree of growth control, ZE” value in experiment [1] (0.31 g/a active ingredient) and in experiment [1] (1.25 g/a active ingredient) was 10 each time. The “degree of growth control, EC” value in experiment [2] (0.31 g/a active ingredient) and in experiment [2] (1.25 g/a active ingredient) was 10 throughout.
`CCN(c1cccc(S(=O)(=O)NC(=O)Nc2nc(C)nc(OC)n2)n1)S(=O)(=O)C(C)(C)Cl` [compound 87]: the “degree of growth control, XA” value in experiment [3] (0.31 g/a active ingredient) and in experiment [3] (1.25 g/a active ingredient) was 10 each time.
Turning to `COc1nc(C)nc(NC(=O)NS(=O)(=O)c2cccc(N(C)S(=O)(=O)C(Br)(Br)Br)n2)n1` [compound 89], the “degree of growth control, XA” value in experiment [3] (0.31 g/a active ingredient) and in experiment [3] (1.25 g/a active ingredient) was 10 throughout. Further, the “degree of growth control, DI” value in experiment [7] (0.31 g/a active ingredient) and in experiment [7] (1.25 g/a active ingredient) was 7 each time.
